Tested on: 422866-222-R5-J1-PDC complex spheroid viability
Assay: Anticancer human tumor 422866-222-R5-J1-PDC patient-derived pancreatic adenocarcinoma cell line growth inhibition [POLQ]
Settings: for IC50: curve of first compound; for viability, T/C: stronger effect = lower value
Procedure, shortened: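 Complex spheroid viability model combining PDC tumour cells with endothelial (HUVEC) and MSC stromal cells. Novobiocin, ART-558 or RP6685 were tested singly and in combination with standard and investigational anticancer drugs. Each was titrated in half-log steps from near clinical Cmax, or from 10 microM where Cmax was unknown.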

[1] = second compound 0.0316 µM, first compound 0.0316 µM
[2] = second compound 0.0316 µM, first compound 0.1 µM
[3] = second compound 0.0316 µM, first compound 0.316 µM
[4] = second compound 0.0316 µM, first compound 1 µM
[5] = second compound 0.0316 µM, first compound 3.16 µM
[6] = second compound 0.0316 µM, first compound 10 µM
[7] = second compound 0.1 µM, first compound 0.0316 µM
[8] = second compound 0.1 µM, first compound 0.1 µM
[9] = second compound 0.1 µM, first compound 0.316 µM
[10] = second compound 0.1 µM, first compound 1 µM
[11] = second compound 0.1 µM, first compound 3.16 µM
[12] = second compound 0.1 µM, first compound 10 µM
[13] = second compound 0.316 µM, first compound 0.0316 µM
[14] = second compound 0.316 µM, first compound 0.1 µM
[15] = second compound 0.316 µM, first compound 0.316 µM
[16] = second compound 0.316 µM, first compound 1 µM
[17] = second compound 0.316 µM, first compound 3.16 µM
[18] = second compound 0.316 µM, first compound 10 µM
[19] = second compound 1 µM, first compound 0.0316 µM
[20] = second compound 1 µM, first compound 0.1 µM
[21] = second compound 1 µM, first compound 0.316 µM
[22] = second compound 1 µM, first compound 1 µM
[23] = second compound 1 µM, first compound 3.16 µM
[24] = second compound 1 µM, first compound 10 µM
[25] = second compound 3.16 µM, first compound 0.0316 µM
[26] = second compound 3.16 µM, first compound 0.1 µM
[27] = second compound 3.16 µM, first compound 0.316 µM
[28] = second compound 3.16 µM, first compound 1 µM
[29] = second compound 3.16 µM, first compound 3.16 µM
[30] = second compound 3.16 µM, first compound 10 µM
[31] = second compound 10 µM, first compound 0.0316 µM
[32] = second compound 10 µM, first compound 0.1 µM
[33] = second compound 10 µM, first compound 0.316 µM
[34] = second compound 10 µM, first compound 1 µM
[35] = second compound 10 µM, first compound 3.16 µM
[36] = second compound 10 µM, first compound 10 µM
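Also: spheroids exposed to compounds for one week before readout.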
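For viability, T/C in this document: percent of DMSO vehicle wells luminescence so 100% = untreated viability.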

CCc1cc2c(N3CCc4c(cc(Cn5ccnc5)cc4-c4cn(C)nc4C(F)(F)F)C3=O)cc(C)nc2c(OC)n1 + Cc1cccc(N(C)C(=O)C2C(O)CCN2c2nc(C)cc(C(F)(F)F)c2C#N)c1 was tested, and the IC50 (second compound 0.0316 µM) was > 10 µM, the IC50 (second compound 0.1 µM) was > 10 µM and the IC50 (second compound 0.316 µM) was > 10 µM. The IC50 (second compound 1 µM) was > 10 µM, the IC50 (second compound 3.16 µM) was > 10 µM and the IC50 (second compound 10 µM) was > 10 µM. For the same compound, the viability, T/C [1] was 78.4%, the viability, T/C [2] was 73.7% and the viability, T/C [3] was 93.1%. It also gave a viability, T/C [4] of 99.6%, a viability, T/C [5] of 104% and a viability, T/C [6] of 98%. The viability, T/C [7] was 84.6%, the viability, T/C [8] was 83.5% and the viability, T/C [9] was 92.2%. For the same compound, the viability, T/C [10] was 88.7%, the viability, T/C [11] was 101% and the viability, T/C [12] was 119%. The viability, T/C [13] was 91.8%, the viability, T/C [14] was 88.7% and the viability, T/C [15] was 81.2%. The viability, T/C [16] was 94.9%, the viability, T/C [17] was 104% and the viability, T/C [18] was 94.4%. For the same compound, the viability, T/C [19] was 84.5%, the viability, T/C [20] was 82.7% and the viability, T/C [21] was 86.6%. It also gave a viability, T/C [22] of 82.8%, a viability, T/C [23] of 93.8% and a viability, T/C [24] of 93.5%. It also gave a viability, T/C [25] of 86.3%, a viability, T/C [26] of 85.8% and a viability, T/C [27] of 92.4%. The viability, T/C [28] was 91.6%, the viability, T/C [29] was 99.8% and the viability, T/C [30] was 90.6%. The viability, T/C [31] was 88.9%, the viability, T/C [32] was 88.5% and the viability, T/C [33] was 93.9%. For the same compound, the viability, T/C [34] was 78.2%, the viability, T/C [35] was 95.8% and the viability, T/C [36] was 94.8%.

In the case of CCc1cc2c(N3CCc4c(cc(Cn5ccnc5)cc4-c4cn(C)nc4C(F)(F)F)C3=O)ccnc2c(OC)n1 + Cc1cccc(N(C)C(=O)C2C(O)CCN2c2nc(C)cc(C(F)(F)F)c2C#N)c1, the IC50 (second compound 0.0316 µM) is reported as > 10 µM, the IC50 (second compound 0.1 µM) is reported as > 10 µM and the IC50 (second compound 0.316 µM) is reported as > 10 µM. For the same compound, the IC50 (second compound 1 µM) was > 10 µM, the IC50 (second compound 3.16 µM) was > 10 µM and the IC50 (second compound 10 µM) was > 10 µM. For the same compound, the viability, T/C [1] was 96.1%, the viability, T/C [2] was 99.6% and the viability, T/C [3] was 93.3%. It also gave a viability, T/C [4] of 88.2%, a viability, T/C [5] of 87.6% and a viability, T/C [6] of 91.8%. The viability, T/C [7] was 88.4%, the viability, T/C [8] was 87.9% and the viability, T/C [9] was 83.5%. It also gave a viability, T/C [10] of 112%, a viability, T/C [11] of 91.4% and a viability, T/C [12] of 99.2%. It also gave a viability, T/C [13] of 90.7%, a viability, T/C [14] of 84.7% and a viability, T/C [15] of 91.7%. It also gave a viability, T/C [16] of 96.3%, a viability, T/C [17] of 96.2% and a viability, T/C [18] of 112%. For the same compound, the viability, T/C [19] was 73%, the viability, T/C [20] was 80.2% and the viability, T/C [21] was 86.1%. For the same compound, the viability, T/C [22] was 98.2%, the viability, T/C [23] was 97.7% and the viability, T/C [24] was 114%. It also gave a viability, T/C [25] of 87.4%, a viability, T/C [26] of 87.6% and a viability, T/C [27] of 89.5%. The viability, T/C [28] was 85.4%, the viability, T/C [29] was 108% and the viability, T/C [30] was 115%. The viability, T/C [31] was 100%, the viability, T/C [32] was 94.2% and the viability, T/C [33] was 90.7%. It also gave a viability, T/C [34] of 93.5%, a viability, T/C [35] of 107% and a viability, T/C [36] of 105%.

With COc1cc2cc(C(=O)CCC(=O)O)sc2cc1OC + Cc1cccc(N(C)C(=O)C2C(O)CCN2c2nc(C)cc(C(F)(F)F)c2C#N)c1 the IC50 (second compound 0.0316 µM) was > 10 µM, the IC50 (second compound 0.1 µM) was > 10 µM and the IC50 (second compound 0.316 µM) was > 10 µM. The IC50 (second compound 1 µM) was > 10 µM, the IC50 (second compound 3.16 µM) was > 10 µM and the IC50 (second compound 10 µM) was > 10 µM. It also gave a viability, T/C [1] of 95.6%, a viability, T/C [2] of 106% and a viability, T/C [3] of 98.6%. The viability, T/C [4] was 90.5%, the viability, T/C [5] was 85.4% and the viability, T/C [6] was 103%. It also gave a viability, T/C [7] of 101%, a viability, T/C [8] of 91.1% and a viability, T/C [9] of 82.6%. The viability, T/C [10] was 101%, the viability, T/C [11] was 75.5% and the viability, T/C [12] was 121%. The viability, T/C [13] was 116%, the viability, T/C [14] was 90.3% and the viability, T/C [15] was 91.8%. It also gave a viability, T/C [16] of 93.4%, a viability, T/C [17] of 93.7% and a viability, T/C [18] of 116%. For the same compound, the viability, T/C [19] was 94.9%, the viability, T/C [20] was 113% and the viability, T/C [21] was 98.2%. The viability, T/C [22] was 80.3%, the viability, T/C [23] was 87.9% and the viability, T/C [24] was 117%. For the same compound, the viability, T/C [25] was 107%, the viability, T/C [26] was 101% and the viability, T/C [27] was 109%. The viability, T/C [28] was 93.1%, the viability, T/C [29] was 85.7% and the viability, T/C [30] was 121%. The viability, T/C [31] was 88.6%, the viability, T/C [32] was 93% and the viability, T/C [33] was 103%. For the same compound, the viability, T/C [34] was 75.2%, the viability, T/C [35] was 79.6% and the viability, T/C [36] was 112%.

With COc1ccc([C@@H](O)c2cc(-c3ncnc4cc(N5CCOCC5)ccc34)c(F)cc2Cl)nn1 + Cc1cccc(N(C)C(=O)C2C(O)CCN2c2nc(C)cc(C(F)(F)F)c2C#N)c1 the IC50 (second compound 0.0316 µM) was 2.6 µM, the IC50 (second compound 0.1 µM) was 4.62 µM and the IC50 (second compound 0.316 µM) was 2.42 µM. For the same compound, the IC50 (second compound 1 µM) was 1.92 µM, the IC50 (second compound 3.16 µM) was 1.65 µM and the IC50 (second compound 10 µM) was 2.28 µM. For the same compound, the viability, T/C [1] was 91.6%, the viability, T/C [2] was 92.2% and the viability, T/C [3] was 77.4%. It also gave a viability, T/C [4] of 62.1%, a viability, T/C [5] of 49.1% and a viability, T/C [6] of 35.5%. For the same compound, the viability, T/C [7] was 92%, the viability, T/C [8] was 81.3% and the viability, T/C [9] was 83.2%. For the same compound, the viability, T/C [10] was 64.5%, the viability, T/C [11] was 54.5% and the viability, T/C [12] was 42.3%. It also gave a viability, T/C [13] of 108%, a viability, T/C [14] of 86.3% and a viability, T/C [15] of 70.9%. The viability, T/C [16] was 61.3%, the viability, T/C [17] was 43.9% and the viability, T/C [18] was 41.4%. For the same compound, the viability, T/C [19] was 89.9%, the viability, T/C [20] was 81.1% and the viability, T/C [21] was 85.9%. It also gave a viability, T/C [22] of 58.5%, a viability, T/C [23] of 44.6% and a viability, T/C [24] of 33.3%. For the same compound, the viability, T/C [25] was 79.8%, the viability, T/C [26] was 90.7% and the viability, T/C [27] was 80.3%. The viability, T/C [28] was 56.4%, the viability, T/C [29] was 43.1% and the viability, T/C [30] was 37.1%. For the same compound, the viability, T/C [31] was 93.3%, the viability, T/C [32] was 83.8% and the viability, T/C [33] was 73.5%. It also gave a viability, T/C [34] of 59%, a viability, T/C [35] of 46% and a viability, T/C [36] of 37.6%.

Reference: PubChem BioAssay AID1963844 (Molecular Pharmacology Branch, DTP, NCI, 2024)
